Holding throughout (assay type): in vivo
One series deals with weeds. Put plainly: Activity assay of compositions: soil sealing treatment (S), fresh weight inhibition and combined effect (Gowing method). The following applies: 21 d. The procedure:
The required active ingredient B was purchased from a reagent company or a technical material manufacturer or synthesized by a conventional method. The technical materials were all dissolved with acetone solvents and diluted with aqueous solution of 0.1% Tween-80 emulsifier, which should be used immediately after dilution.
• Weeds were cultivated in a controllable sunlight greenhouse at 20 to 30° C., in natural light, and with relative humidity of 57% to 72%. […] The test soil was quantitatively filled to ¾ of the pot, and then watered from the bottom of the pot to completely wet the soil to saturation. The test weed seeds were accelerated to just germinate, and then evenly and quantitatively broadcasted on the soil surface, covered with 0.5-1 cm soil according to the sizes of the seeds, and ready for use 72 hours after sowing.
Each treatment was repeated 4 times. Four pots with 20 weed seeds sowed per pot were treated each time.
The well-sowed test materials were evenly placed on a platform with an area of 0.5 m^2, and foliage spraying was carried out by the 3WP-2000-type walking spray tower at a dosage of 450 kg/ha and a spray pressure of 0.3 MPa. After all the solution was sprayed, the air valve was closed. And 30 seconds later, the door of the spray tower was opened, and the nutritional bowl was taken out. Next, the air valve was opened, and the spray tube was cleaned by spraying 50 ml of water.
A method for investigating absolute numbers was employed. Whole seedlings of survival weeds were cut off along the soil surface with a blade, and the fresh weight of the weeds was weighed using an analytical balance. For dead weeds, the fresh weight thereof was zero.
The investigation was performed 21 days after the treatment for once in total.
The theoretical fresh weight inhibition rate of a mixed combination of each treatment was calculated by the Gowing method (E0=X+Y−X*Y/100). Then compared with the measured inhibition rate (E), the type of the combined effect of the combination of the two on weeds was evaluated, which was a synergistic effect when E−E0>10%; an antagonistic effect when E−E0<−10%; an additional effect when −10%≤E−E0≤10%. An optimal ratio was determined according to factors such as the actual control effects, characteristics of herbicides, balance of the formulation, etc. In the formula, X represents the fresh weight inhibition rate of the active ingredient A in a dosage of P; Y represents the fresh weight inhibition rate of the active ingredient B in a dosage of Q. The statistical results are shown in Table 4.

Series [1] deals with monocotyledonous and dicotyledonous weeds. In words: Pre-emergence test experiment (weeds). Details: key: 9: completely dead; 8: growth control rate is greater than or equal to 90% and less than 100%; 7: growth control rate is greater than or equal to 80% and less than 90%; 6: growth control rate is greater than or equal to 70% and less than 80%; growth control rate is greater than or equal to 50% and less than 70%; 4: growth control rate is greater than or equal to 30% and less than 50%; growth control rate is greater than or equal to 20% and less than 30%; growth control rate is greater than or equal to 10% and less than 20%; growth control rate is less than 10%; 0: no effect. To be noted: 30 g a.i./ha.

In a further series the test system is major crops. Put plainly: Pre-emergence test experiment (crops). Details: key: 9: completely dead; 8: growth control rate is greater than or equal to 90% and less than 100%; 7: growth control rate is greater than or equal to 80% and less than 90%; 6: growth control rate is greater than or equal to 70% and less than 80%; growth control rate is greater than or equal to 50% and less than 70%; 4: growth control rate is greater than or equal to 30% and less than 50%; growth control rate is greater than or equal to 20% and less than 30%; growth control rate is greater than or equal to 10% and less than 20%; growth control rate is less than 10%; 0: no effect. To be noted: 30 g a.i./ha.

Setting [2] is: Commelina communis, B 30 g a.i./ha.
[3] abbreviates: Commelina communis, B 60 g a.i./ha.
The mark [4] stands for this setting: Lolium multiflorum, B 75 g a.i./ha.
Setting [5] is: Lolium multiflorum, B 150 g a.i./ha.
Setting [6] is: Lolium multiflorum, B 30 g a.i./ha.
Setting [7] is: Lolium multiflorum, B 60 g a.i./ha.
Where [8] appears, read: Eclipta prostrata, B 150 g a.i./ha.
Where [9] appears, read: Eclipta prostrata, B 22.5 g a.i./ha.
[10] abbreviates: Eclipta prostrata, B 45 g a.i./ha.
The mark [11] stands for this setting: Eclipta prostrata, B 300 g a.i./ha.

As for `COC(=O)[C@@H](C)O/N=C/c1cc(-n2c(=O)cc(C(F)(F)F)n(C)c2=O)c(F)cc1Cl`, the “Control effect of B applied alone in a corresponding dose (%)” value (shortened to “Control effect of B applied alone … (%)”) with weeds (setting [2]) turned out to be 28.5%; with weeds (setting [3]), 46.1%.

Regarding `CCC[S@@+]([O-])c1c(C(F)(F)F)ccc(C(=O)Nc2nnc(C)o2)c1F`, the “Control effect of B applied alone … (%)” value stood at 26.1% with weeds (Ammannia arenaria, B 15 g a.i./ha) and 43.8% in the series with weeds (Ammannia arenaria, B 30 g a.i./ha).

In the case of `CC1(C)CON(Cc2ccc(Cl)cc2Br)C1=O`, the “Control effect of B applied alone … (%)” value with weeds (setting [4]) stood at 43.7%; in the series on weeds (setting [5]), 61.0%.

Regarding `CC(C)C12CCC(C)(O1)C(OCc1c(F)cccc1Br)C2` (stereo not drawn), the results for the “Control effect of B applied alone … (%)” value in the series with weeds (setting [6]) and with weeds (setting [7]) were 55.2% and 70.4%, respectively.

For `C[C@@H](Oc1nc(F)c(Cl)c(N)c1Cl)C(=O)OCC1CCCO1` (stereo partly drawn), the “Control effect of B applied alone … (%)” value worked out at 48.0% in the series on weeds (Silene conoidea, B 75 g a.i./ha) and 54.2% in the series on weeds (Silene conoidea, B 150 g a.i./ha).

Regarding `C[C@@H](Oc1nc(F)c(Cl)c(N)c1Cl)C(=O)O`, the “Control effect of B applied alone … (%)” value with weeds (setting [5]) is recorded as 38.4%; with weeds (Lolium multiflorum, B 300 g a.i./ha), 53.7%.

On to `Cc1ccccc1CO[C@@H]1C[C@@]2(C(C)C)CC[C@]1(C)O2` (racemic) [Cinmethylin], for which the “Control effect of B applied alone … (%)” value with weeds (Eclipta prostrata, B 7.5 g a.i./ha) is 51.5%; in the series on weeds (Eclipta prostrata, B 15 g a.i./ha), 72.0%.

Consider `CCOC(=O)C1(C)CC(c2cc(-n3c(=O)cc(C(F)(F)F)n(C)c3=O)c(F)cc2Cl)=NO1` (stereo not drawn) [3-[2-chloro-5-[3,6-dihydro-3-methyl-2,6-dioxo-4-(trifluoromethyl)-1(2H)-pyrimidinyl]-4-fluorophenyl]-4,5-dihydro-5-methyl-5-isoxazolecarboxylic acid ethyl ester], for which the figures for the “Control effect of B applied alone … (%)” value in the series on weeds (setting [2]) and with weeds (setting [3]) were 35.0% and 47.3%, respectively.

With `CCOCN(C(=O)CCl)c1c(C)cccc1CC` [Acetochlor], the “Control effect of B applied alone … (%)” value in the series with weeds (Amaranthus retroflexus, B 150 g a.i./ha) is reported as 40.2%; with weeds (Amaranthus retroflexus, B 300 g a.i./ha), 58.3%.

As to `COP(=S)(OC)SCC(=O)N(c1ccc(Cl)cc1)C(C)(C)C` [Anilofos], the “Control effect of B applied alone … (%)” value is reported as 14.2% in the series on weeds (Eclipta prostrata, B 75 g a.i./ha) and 23.6% in the series on weeds (setting [8]).

Turning to `CCNc1nc(Cl)nc(NC(C)C)n1` [Atrazine], the “Control effect of B applied alone … (%)” value with weeds (Chloris virgata, B 300 g a.i./ha) was determined as 40.1%; with weeds (Chloris virgata, B 600 g a.i./ha), 58.9%.

`CS(=O)(=O)c1ccc(C(=O)C2=C(Sc3ccccc3)C3CCC(C3)C2=O)c(Cl)c1` (stereo not drawn) [Benzobicyclon]: the “Control effect of B applied alone … (%)” value in the series on weeds (setting [9]) was 49.2%; with weeds (setting [10]), 74.0%.

Consider `CC1(C)CON(Cc2ccc(Cl)cc2Cl)C1=O` [Bixlozone], for which the “Control effect of B applied alone … (%)” value in the series with weeds (setting [4]) came out at 50.2%; in the series on weeds (setting [5]), 70.0%.

With `CCCCOCN(C(=O)CCl)c1c(CC)cccc1CC` [Butachlor], the “Control effect of B applied alone … (%)” value with weeds (setting [8]) worked out at 37.2%; in the series on weeds (setting [11]), 66.8%.

`CCC(C)Nc1c([N+](=O)[O-])cc(C(C)(C)C)cc1[N+](=O)[O-]` (stereo not drawn) [Butralin]: the “Control effect of B applied alone … (%)” value was 47.0% in the series with weeds (setting [8]) and 65.3% in the series on weeds (setting [11]).

With `Cc1ccc(NC(=O)N(C)C)cc1Cl` [Chlorotoluron], the “Control effect of B applied alone … (%)” value with weeds (Lolium temulentum, B 375 g a.i./ha) worked out at 34.3%; with weeds (Lolium temulentum, B 750 g a.i./ha), 59.3%.

For `COCc1ccc(-n2cnc(C(F)(F)F)n2)nc1Oc1ccc(F)c(OC(F)F)c1` [Compound 147], in series [1], the “Pre-emergence activity level (growth control rate) on Amaranthus retroflexus” value is recorded as 9; the “Pre-emergence activity level (growth control rate) on Descurainia sophia” value was 9; the “Pre-emergence activity level (growth control rate) on Digitaria sanguinalis” value is 8 (growth control rate is greater than or equal to 90% and less than 100%); the “Pre-emergence activity level (growth control rate) on Setaria viridis” value is given as 9. For the same compound, in series [1], the “Pre-emergence activity level (growth control rate) on Solanum nigrum” value was 9 and the “Pre-emergence activity level (growth control rate) on Veronica” value stood at 9. In the series with major crops, the “Pre-emergence plant damage level (growth control rate) on Corn” value (from here on “Pre-emergence plant damage level … on Corn”) is given as 0, the “Pre-emergence plant damage level (growth control rate) on Cotton” value (shortened to “Pre-emergence plant damage level … on Cotton”) was determined as 0 and the “Pre-emergence plant damage level (growth control rate) on Soybean” value (from here on “Pre-emergence plant damage level … on Soybean”) was 0.

In the case of `COCc1ccc(-n2cnc(C(F)(F)F)n2)nc1Oc1cccc(OC(F)F)c1` [Compound 148], in series [1], the “Pre-emergence activity level (growth control rate) on Amaranthus retroflexus” value amounted to 9; the “Pre-emergence activity level (growth control rate) on Descurainia sophia” value is recorded as 9; the “Pre-emergence activity level (growth control rate) on Digitaria sanguinalis” value was 8 (growth control rate is greater than or equal to 90% and less than 100%); the “Pre-emergence activity level (growth control rate) on Setaria viridis” value was determined as 9. In series [1], the “Pre-emergence activity level (growth control rate) on Solanum nigrum” value was determined as 9 and the “Pre-emergence activity level (growth control rate) on Veronica” value is 9. Besides, in the series with major crops, the “Pre-emergence plant damage level … on Corn” value was 0, the “Pre-emergence plant damage level … on Cotton” value was 0 and the “Pre-emergence plant damage level … on Soybean” value is recorded as 0.

With `COCc1ccc(-n2cnc(C(F)(F)F)n2)nc1Oc1cccc(C)c1` [Compound 149], in series [1], the “Pre-emergence activity level (growth control rate) on Digitaria sanguinalis” value is 8 (growth control rate is greater than or equal to 90% and less than 100%); the “Pre-emergence activity level (growth control rate) on Setaria viridis” value was 8 (growth control rate is greater than or equal to 90% and less than 100%). In addition, in the series on major crops, the “Pre-emergence plant damage level … on Corn” value stood at 0, the “Pre-emergence plant damage level … on Cotton” value turned out to be 0 and the “Pre-emergence plant damage level … on Soybean” value stood at 0.

Regarding `CCOC(=O)COc1ncccc1Oc1cc(-n2c(=O)cc(C(F)(F)F)n(C)c2=O)c(F)cc1Cl` [Epyrifenacil], the results for the “Control effect of B applied alone … (%)” value with weeds (setting [2]) and with weeds (setting [3]) were 38.8% and 50.5%, respectively.

In the case of `CCn1ncc(C(=O)c2ccc(S(C)(=O)=O)c(COCC(F)(F)F)c2Cl)c1OC(=O)c1cn(C)nc1C` [Fenpyrazone], the “Control effect of B applied alone … (%)” value is 13.5% in the series on weeds (Amaranthus retroflexus, B 15 g a.i./ha) and 33.7% in the series with weeds (Amaranthus retroflexus, B 30 g a.i./ha).

Take `CCN(C(=O)n1nnn(-c2ccccc2Cl)c1=O)C1CCCCC1` [Fentrazamide]: the “Control effect of B applied alone … (%)” value in the series with weeds (setting [9]) is 35.1%; in the series on weeds (setting [10]) it was 48.9%.

Turning to `CC(C)N(C(=O)COc1nnc(C(F)(F)F)s1)c1ccc(F)cc1` [Flufenacet], the entries for the “Control effect of B applied alone … (%)” value with weeds (setting [6]) and in the series with weeds (setting [7]) were 46.2% and 68.5%, respectively.

The values above are taken from US20260305610A1, “TRIAZOLE COMPOUND, AND PREPARATION METHOD THEREFOR, HERBICIDAL COMPOSITION AND USE THEREOF” (QINGDAO KINGAGROOT CHEMICAL COMPOUND CO., LTD., priority 2023, published 2026).
